Source: paper PMC7594047, “Synthesis of a New Class of Spirooxindole–Benzo[b]Thiophene-Based Molecules as Acetylcholinesterase Inhibitors” (Molecules, 2020)
Like-named read-outs stand apart in the source and are kept apart here.

Tests used:
[1] = target: T1, acetylcholinesterase enzyme from electric eel (Electrophorus electricus, UniProt O42275); assay: Acetylcholinesterase (AChE) inhibitory assay (DTNB/acetylthiocholine iodide, absorbance at 412 nm); format: biochemical; conditions: for inhibition at 1.56 µg/mL: Conc 1.56 ug/ml; for inhibition at 3.125 µg/mL: Conc 3.125 ug/ml; for inhibition at 6.25 µg/mL: Conc 6.25 ug/ml; for inhibition at 12.5 µg/mL: Conc 12.5 ug/ml; for inhibition at 25 µg/mL: Conc 25 ug/ml; for inhibition at 50 µg/mL: Conc 50 ug/ml
T1 construct: purchased Sigma-Aldrich CAS Number 9000-81-1 (catalogue number not given)
T1 sequence (O42275 24-633): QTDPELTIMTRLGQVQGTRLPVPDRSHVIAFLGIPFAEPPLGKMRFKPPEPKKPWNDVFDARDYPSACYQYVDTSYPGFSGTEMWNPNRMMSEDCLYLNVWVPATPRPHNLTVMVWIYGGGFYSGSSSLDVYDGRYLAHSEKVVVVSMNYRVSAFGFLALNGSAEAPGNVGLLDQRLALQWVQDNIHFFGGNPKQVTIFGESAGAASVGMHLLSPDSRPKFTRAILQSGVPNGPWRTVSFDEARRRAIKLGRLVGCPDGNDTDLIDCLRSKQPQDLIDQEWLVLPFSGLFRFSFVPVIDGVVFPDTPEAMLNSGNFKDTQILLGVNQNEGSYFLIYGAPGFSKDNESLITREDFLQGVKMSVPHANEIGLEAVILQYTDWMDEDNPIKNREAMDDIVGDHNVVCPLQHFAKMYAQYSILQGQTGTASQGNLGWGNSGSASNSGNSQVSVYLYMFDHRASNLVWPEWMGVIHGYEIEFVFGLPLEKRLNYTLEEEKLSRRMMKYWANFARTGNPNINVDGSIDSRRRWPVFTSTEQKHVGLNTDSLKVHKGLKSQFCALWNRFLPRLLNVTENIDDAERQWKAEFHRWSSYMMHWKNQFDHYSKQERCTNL
Method: The in vitro cholinesterase inhibitory activity of the 14 synthesized spiro-oxindole derivatives (IIa–n) were evaluated. […] Galantamine was used as a positive control for comparison.
Acetylcholinesterase (AChE) inhibitory assay.
140 μL of 0.1 M sodium phosphate buffer of pH 8 was first added to a 96-wells microplate followed by 20 μL of test samples and 20 μL of 0.09 units/mL acetylcholinesterase enzyme from electric eel (Sigma-Aldrich, CAS Number 9000-81-1). After 15 min of incubation at 25 °C, 10 μL of 10 mM 5,5′-dithiobis-2-nitrobenzoic acid (DTNB, Sigma-Aldrich, CAS Number 69-78-3) was added into each well followed by 10 μL of 14 mM acetylthiocholine iodide (Sigma-Aldrich, CAS Number 1866-15-5). Thirty min after the initiation of enzymatic reaction, absorbance of the colored end-product was measured using StatFax-2100 microplate reader (Awareness Technology, Inc., USA) at 412 nm. Each test was conducted in triplicates. Test samples were prepared in DMSO at an initial concentration of 1 mg/mL (1000 ppm).
The concentration of DMSO in final reaction mixture was 1%.
The initial screening was carried out at 50 μg/mL of test samples in 1% DMSO. Absorbance of the test samples was corrected by subtracting the absorbance of their respective blank. Percentage enzyme inhibition is calculated using the following formula Percentage of inhibition = Absorbance of control - […]

AChE = conditions: cited from earlier work
[2] = read-out: IC50 value against AChE
[3] = supplement, six concentrations 1.56-50 μg/mL, read-out: IC50 (AchE inhibition) (converted)

SMILES: O=C(c1ccc(Cl)cc1)C1C(c2cc3ccccc3s2)C2CSCN2[C@@]12C(=O)Nc1ccccc12 (stereo partly drawn) [IIe, (3S)-7′-(Benzo[b]thiophen-2-yl)-6′-(4-chlorobenzoyl)-3′,6′,7′,7a’-tetrahydro-1′H-spiro[indoline-3,5′-pyrrolo[1,2-c]thiazol]-2-one]
- inhibition at 1.56 µg/mL [1]: 18.2%
- inhibition at 3.125 µg/mL [1]: 23.3%
- inhibition at 6.25 µg/mL [1]: 27.7%
- inhibition at 12.5 µg/mL [1]: 40.3%
- inhibition at 25 µg/mL [1]: 50.5%
- inhibition at 50 µg/mL [1]: 58.6%
- IC50 [1, 2]: 50.6 µM
- IC50 [1, 3]: 50.6 µM

SMILES: O=C(c1ccc(Cl)cc1)C1C(c2cc3ccccc3s2)C2C3CCCCC3CN2[C@@]12C(=O)Nc1ccc(Cl)cc12 (stereo partly drawn) [IIf, (3S)-1′-(Benzo[b]thiophen-2-yl)-5-chloro-2′-(4-chlorobenzoyl)-1′,2′,5′,5a’,6′,7′,8′,9′,9a’,9b’-decahydrospiro[indoline-3,3′-pyrrolo[2,1-a]isoindol]-2-one]
- inhibition at 1.56 µg/mL [1]: 16.1%
- inhibition at 3.125 µg/mL [1]: 24.4%
- inhibition at 6.25 µg/mL [1]: 34.9%
- inhibition at 12.5 µg/mL [1]: 43%
- inhibition at 25 µg/mL [1]: 53%
- inhibition at 50 µg/mL [1]: 63.1%
- IC50 [1, 2]: 34 µM
- IC50 [1, 3]: 34 µM

SMILES: O=C(c1ccc(Br)cc1)C1C(c2cc3ccccc3s2)C2C3CCCCC3CN2[C@@]12C(=O)Nc1ccc(Cl)cc12 (stereo partly drawn) [IIn, (3S)-1′-(Benzo[b]thiophen-2-yl)-2′-(4-bromobenzoyl)-5-chloro-1′,2′,5′,5a’,6′,7′,8′,9′,9a’,9b’-decahydrospiro[indoline-3,3′-pyrrolo[2,1-a]isoindol]-2-one]
- inhibition at 1.56 µg/mL [1]: 15.6%
- inhibition at 3.125 µg/mL [1]: 23.4%
- inhibition at 6.25 µg/mL [1]: 32.5%
- inhibition at 12.5 µg/mL [1]: 41.8%
- inhibition at 25 µg/mL [1]: 50.1%
- inhibition at 50 µg/mL [1]: 61%
- IC50 [1, 2]: 36.8 µM
- IC50 [1, 3]: 36.8 µM

SMILES: O=C(c1ccccc1)C1C(c2cc3ccccc3s2)C2CSCN2[C@@]12C(=O)Nc1ccc(Cl)cc12 (stereo partly drawn) [IIa, (3S)-7′-(Benzo[b]thiophen-2-yl)-6′-benzoyl-5-chloro-3′,6′,7′,7a’-tetrahydro-1′H-spiro[indoline-3,5′-pyrrolo[1,2-c]thiazol]-2-one]
- inhibition at 1.56 µg/mL [1]: 1.68%
- inhibition at 3.125 µg/mL [1]: 6.58%
- inhibition at 6.25 µg/mL [1]: 14.4%
- inhibition at 12.5 µg/mL [1]: 27.7%
- inhibition at 25 µg/mL [1]: 39%
- inhibition at 50 µg/mL [1]: 50.4%
- IC50 [1, 2]: > 70 µM
- IC50 [1, 3]: 85.6 µM

SMILES: O=C(c1ccc(F)cc1)C1C(c2cc3ccccc3s2)C2C3CCCCC3CN2[C@@]12C(=O)Nc1ccc(Cl)cc12 (stereo partly drawn) [IIh, (3S)-1′-(Benzo[b]thiophen-2-yl)-5-chloro-2′-(4-fluorobenzoyl)-1′,2′,5′,5a’,6′,7′,8′,9′,9a’,9b’-decahydrospiro[indoline-3,3′-pyrrolo[2,1-a]isoindol]-2-one]
- inhibition at 1.56 µg/mL [1]: 0.46%
- inhibition at 3.125 µg/mL [1]: 6.58%
- inhibition at 6.25 µg/mL [1]: 10.7%
- inhibition at 12.5 µg/mL [1]: 23.3%
- inhibition at 25 µg/mL [1]: 27.4%
- inhibition at 50 µg/mL [1]: 43%
- IC50 ([1]; Table 1, read-out: AChE Inhibition IC50): 122 µM
- IC50 [1, 3]: 122 µM

SMILES: O=C(c1ccccc1)C1C(c2cc3ccccc3s2)C2CSCN2[C@@]12C(=O)Nc1ccccc12 (stereo partly drawn) [IIb, (3S)-7′-(Benzo[b]thiophen-2-yl)-6′-benzoyl-3′,6′,7′,7a’-tetrahydro-1′H-spiro[indoline-3,5′-pyrrolo[1,2-c]thiazol]-2-one]
- inhibition at 1.56 µg/mL [1]: 2.76%
- inhibition at 3.125 µg/mL [1]: 8.12%
- inhibition at 6.25 µg/mL [1]: 16.2%
- inhibition at 12.5 µg/mL [1]: 25.6%
- inhibition at 25 µg/mL [1]: 40.9%
- inhibition at 50 µg/mL [1]: 51.5%
- IC50 [1, 2]: > 70 µM
- IC50 [1, 3]: 88.4 µM

SMILES: O=C1/C(=C/c2ccc(Cl)cc2Cl)CN(C(=O)C2CC3CCCN3C23C(=O)Nc2cc(Cl)ccc23)C/C1=C\c1ccc(Cl)cc1Cl (stereo not shown) [compound A]
- AChE inhibitory activity IC50 (AChE; compound A): 2.37 ± 0.11 µg/mL
- IC50 (AChE; compound A, read-out: AChE inhibitory activity IC50): 3.33 µM

SMILES: O=C(c1ccc(Cl)cc1)C1C(c2cc3ccccc3s2)C2CSCN2[C@@]12C(=O)Nc1ccc(Cl)cc12 (stereo partly drawn) [IId, (3S)-7′-(Benzo[b]thiophen-2-yl)-5-chloro-6′-(4-chlorobenzoyl)-3′,6′,7′,7a’-tetrahydro-1′H-spiro[indoline-3,5′-pyrrolo[1,2-c]thiazol]-2-one]
- inhibition at 1.56 µg/mL [1]: 19.8%
- inhibition at 3.125 µg/mL [1]: 24.8%
- inhibition at 6.25 µg/mL [1]: 29.7%
- inhibition at 12.5 µg/mL [1]: 41.5%
- inhibition at 25 µg/mL [1]: 53.3%
- inhibition at 50 µg/mL [1]: 64%
- IC50 [1, 2]: 37.7 µM
- IC50 [1, 3]: 37.7 µM

SMILES: O=C1/C(=C/c2ccc(Cl)cc2)CN(C(=O)C2CC3CCCN3C23C(=O)Nc2ccccc23)C/C1=C\c1ccc(Cl)cc1 (stereo not shown) [compound B]
- AChE inhibitory activity IC50 (AChE; compound B, Figure 1): 2.28 ± 0.07 µg/mL

SMILES: O=C(c1ccc(C(F)(F)F)cc1)C1C(c2cc3ccccc3s2)C2CSCN2[C@@]12C(=O)Nc1ccccc12 (stereo partly drawn) [IIj, (3S)-7′-(Benzo[b]thiophen-2-yl)-6′-(4-(trifluoromethyl)benzoyl)-3′,6′,7′,7a’-tetrahydro-1′H-spiro[indoline-3,5′-pyrrolo[1,2-c]thiazol]-2-one]
- inhibition at 1.56 µg/mL [1]: 1.68%
- inhibition at 3.125 µg/mL [1]: 6.43%
- inhibition at 6.25 µg/mL [1]: 12.2%
- inhibition at 12.5 µg/mL [1]: 29.4%
- inhibition at 25 µg/mL [1]: 41%
- inhibition at 50 µg/mL [1]: 50.7%
- IC50 [1, 3]: 76 µM

SMILES: O=C(c1ccc(Br)cc1)C1C(c2cc3ccccc3s2)C2CSCN2[C@@]12C(=O)Nc1ccc(Cl)cc12 (stereo partly drawn) [IIl, (3S)-7′-(Benzo[b]thiophen-2-yl)-6′-(4-bromobenzoyl)-5-chloro-3′,6′,7′,7a’-tetrahydro-1′H-spiro[indoline-3,5′-pyrrolo[1,2-c]thiazol]-2-one]
- inhibition at 1.56 µg/mL [1]: 11.6%
- inhibition at 3.125 µg/mL [1]: 25.6%
- inhibition at 6.25 µg/mL [1]: 34.9%
- inhibition at 12.5 µg/mL [1]: 44.4%
- inhibition at 25 µg/mL [1]: 56.5%
- inhibition at 50 µg/mL [1]: 64.9%
- IC50 [1, 2]: 29.8 µM
- IC50 [1, 3]: 29.8 µM

SMILES: O=C(c1ccc(C(F)(F)F)cc1)C1C(c2cc3ccccc3s2)C2C3CCCCC3CN2[C@@]12C(=O)Nc1ccc(Cl)cc12 (stereo partly drawn) [IIk, (3S)-1′-(Benzo[b]thiophen-2-yl)-5-chloro-2′-(4-(trifluoromethyl)benzoyl)-1′,2′,5′,5a’,6′,7′,8′,9′,9a’,9b’-decahydrospiro[indoline-3,3′-pyrrolo[2,1-a]isoindol]-2-one]
- inhibition at 1.56 µg/mL [1]: 9.95%
- inhibition at 3.125 µg/mL [1]: 24.8%
- inhibition at 6.25 µg/mL [1]: 32.8%
- inhibition at 12.5 µg/mL [1]: 41.8%
- inhibition at 25 µg/mL [1]: 49.2%
- inhibition at 50 µg/mL [1]: 57.3%
- IC50 [1, 2]: 41.5 µM
- IC50 [1, 3]: 41.5 µM

SMILES: O=C(c1ccc(F)cc1)C1C(c2cc3ccccc3s2)C2CSCN2[C@@]12C(=O)Nc1ccc(Cl)cc12 (stereo partly drawn) [IIg, (3S)-7′-(Benzo[b]thiophen-2-yl)-5-chloro-6′-(4-fluorobenzoyl)-3′,6′,7′,7a’-tetrahydro-1′H-spiro[indoline-3,5′-pyrrolo[1,2-c]thiazol]-2-one]
- inhibition at 1.56 µg/mL [1]: 23.4%
- inhibition at 3.125 µg/mL [1]: 30.3%
- inhibition at 6.25 µg/mL [1]: 41.5%
- inhibition at 12.5 µg/mL [1]: 51.8%
- inhibition at 25 µg/mL [1]: 59%
- inhibition at 50 µg/mL [1]: 68.3%
- IC50 [1, 2]: 23 µM
- IC50 [1, 3]: 23 µM

SMILES: O=C(c1ccc(Br)cc1)C1C(c2cc3ccccc3s2)C2CSCN2[C@@]12C(=O)Nc1ccccc12 (stereo partly drawn) [IIm, (3S)-7′-(Benzo[b]thiophen-2-yl)-6′-(4-bromobenzoyl)-3′,6′,7′,7a’-tetrahydro-1′H-spiro[indoline-3,5′-pyrrolo[1,2-c]thiazol]-2-one]
- IC50 [1, 2]: 41.4 µM

SMILES: O=C(c1ccccc1)C1C(c2cc3ccccc3s2)C2C3CCCCC3CN2[C@@]12C(=O)Nc1ccc(Cl)cc12 (stereo partly drawn) [IIc, (3S)-1′-(Benzo[b]thiophen-2-yl)-2′-benzoyl-5-chloro-1′,2′,5′,5a’,6′,7′,8′,9′,9a’,9b’-decahydrospiro[indoline-3,3′-pyrrolo[2,1-a]isoindol]-2-one]
- inhibition at 1.56 µg/mL [1]: 13.9%
- inhibition at 3.125 µg/mL [1]: 29.9%
- inhibition at 6.25 µg/mL [1]: 43.5%
- inhibition at 12.5 µg/mL [1]: 54.5%
- inhibition at 25 µg/mL [1]: 61.6%
- inhibition at 50 µg/mL [1]: 70.3%
- IC50 [1, 3]: 20.8 µM

SMILES: O=C(c1ccc(C(F)(F)F)cc1)C1C(c2cc3ccccc3s2)C2CSCN2[C@@]12C(=O)Nc1ccc(Cl)cc12 (stereo partly drawn) [IIi, (3S)-7′-(Benzo[b]thiophen-2-yl)-5-chloro-6′-(4-(trifluoromethyl)benzoyl)-3′,6′,7′,7a’-tetrahydro-1′H-spiro[indoline-3,5′-pyrrolo[1,2-c]thiazol]-2-one]
- inhibition at 1.56 µg/mL [1]: 1.23%
- inhibition at 3.125 µg/mL [1]: 7.35%
- inhibition at 6.25 µg/mL [1]: 12.7%
- inhibition at 12.5 µg/mL [1]: 26.2%
- inhibition at 25 µg/mL [1]: 38.7%
- inhibition at 50 µg/mL [1]: 52.4%
- IC50 [1, 3]: 72.4 µM
